ChEMBL document CHEMBL1201862, “PubChem BioAssay data set” (2004)
Several values for one entry are separate records, joined by “and”; a condition that tells them apart may be missing. Equal values may be shown once.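 Test compounds were applied to cells in 96-well plates for 48 hours at 5 doses. Abbreviation: GI50, concentration required for 50% inhibition of growth.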 Activity calls are given as the source filed them. No stated cut-off is given here; in the data, active = GI50 up to about 1.1 µM and inactive = higher.

How the values were obtained:
Experiment in all cases: NCI tumour cell line growth inhibition, 48 h
Hs-578T = system: Hs-578T
U-251 = system: U-251
HT-29 = system: HT-29
NCI-H226 = system: NCI-H226
NCI-H23 = system: NCI-H23
SR = system: SR
ACHN = system: ACHN
A549 = system: A549
SW-620 = system: SW-620
A498 = system: A498
Malme-3M = system: Malme-3M
HOP-62 = system: HOP-62
NCI-H522 = system: NCI-H522
EKVX = system: EKVX
MCF7 = system: MCF7
TK-10 = system: TK-10
SF-539 = system: SF-539
OVCAR-8 = system: OVCAR-8
K562 = system: K562
SK-MEL-5 = system: SK-MEL-5
UACC-257 = system: UACC-257
SNB-75 = system: SNB-75
OVCAR-3 = system: OVCAR-3
CCRF-CEM = system: CCRF-CEM
MOLT-4 = system: MOLT-4
786-0 = system: 786-0
SK-MEL-28 = system: SK-MEL-28
SK-MEL-2 = system: SK-MEL-2
NCI-H460 = system: NCI-H460
RPMI-8226 = system: RPMI-8226
HCC 2998 = system: HCC 2998
PC-3 = system: PC-3
SF-295 = system: SF-295
SF-268 = system: SF-268
HCT-15 = system: HCT-15
HL-60 = system: HL-60
SN12C = system: SN12C
KM12 = system: KM12
HCT-116 = system: HCT-116
OVCAR-5 = system: OVCAR-5
T47D = system: T47D
MDA-MB-231 = system: MDA-MB-231
SK-OV-3 = system: SK-OV-3
CAKI-1 = system: CAKI-1
IGROV-1 = system: IGROV-1
M14 = system: M14
COLO 205 = system: COLO 205
UACC-62 = system: UACC-62
DU-145 = system: DU-145
MDA-N = system: MDA-N
RXF 393 = system: RXF 393

Compound | GI50 (HT-29) | GI50 (NCI-H23) | GI50 (SR) | GI50 (A549) | GI50 (SW-620) | GI50 (Malme-3M) | GI50 (HOP-62) | GI50 (EKVX) | GI50 (MCF7) | GI50 (TK-10) | GI50 (OVCAR-8) | GI50 (K562) | GI50 (SK-MEL-5) | GI50 (UACC-257) | GI50 (SNB-75) | GI50 (CCRF-CEM) | GI50 (MOLT-4) | GI50 (786-0) | GI50 (HCT-15) | GI50 (SN12C) | further results
O=C(CCCn1cnc([N+](=O)[O-])n1)NCCCn1ccnc1[N+](=O)[O-] | > 100 µM (inactive) | > 100 µM (inactive) | > 100 µM (inactive) | > 100 µM (inactive) | 68.2 µM (inactive) | 83.2 µM (inactive) | > 100 µM (inactive) | > 100 µM (inactive) | > 100 µM (inactive) | 99.8 µM (inactive) | > 100 µM (inactive) | > 100 µM (inactive) | 61.8 µM (inactive) | > 100 µM (inactive) | > 100 µM (inactive) | > 100 µM (inactive) | > 100 µM (inactive) | > 100 µM (inactive) | > 100 µM | > 100 µM (inactive) | GI50 (Hs-578T): > 100 µM (inactive); GI50 (U-251): > 100 µM (inactive); GI50 (NCI-H226): > 100 µM (inactive); GI50 (ACHN): > 100 µM (inactive); GI50 (A498): 9.35 µM (inactive); GI50 (NCI-H522): > 100 µM (inactive); GI50 (SF-539): > 100 µM (inactive); GI50 (OVCAR-3): > 100 µM (inactive); GI50 (SK-MEL-28): > 100 µM (inactive); GI50 (SK-MEL-2): 32.4 µM (inactive); GI50 (NCI-H460): > 100 µM (inactive); GI50 (RPMI-8226): > 100 µM (inactive); GI50 (HCC 2998): > 100 µM (inactive); GI50 (PC-3): > 100 µM (inactive); GI50 (SF-295): > 100 µM (inactive); GI50 (SF-268): > 100 µM (inactive); GI50 (HL-60): 78.9 µM (inactive); GI50 (KM12): > 100 µM (inactive); GI50 (HCT-116): > 100 µM (inactive); GI50 (OVCAR-5): > 100 µM (inactive)
COc1ccc(C2c3c(-c4ccccc4)nn(-c4ccccc4)c3Oc3ncn4nc(CC#N)nc4c32)cc1OC (stereo not given) | – | – | 5.57 µM (inactive) | – | – | – | – | 7.89 µM (inactive) | – | – | – | 22.6 µM (inactive) and > 23.7 µM (inactive) | – | – | – | – | > 100 µM (inactive) | – | 14 µM and 20.3 µM | 15 µM (inactive) and > 20.1 µM (inactive) | GI50 (T47D): 10.1 µM (inactive)
CC1OC(c2ccc3c(OCc4ccccc4)cccc3c2O)CC(OCc2ccccc2)[C@H]1OCc1ccccc1 (stereo not given in full) | > 10 µM (inactive) | > 10 µM (inactive) | – | > 10 µM (inactive) | > 10 µM (inactive) | > 10 µM (inactive) | > 10 µM (inactive) | > 10 µM (inactive) | > 10 µM (inactive) | > 10 µM (inactive) | > 10 µM (inactive) | > 10 µM (inactive) | > 10 µM (inactive) | > 10 µM (inactive) | > 10 µM (inactive) | > 10 µM (inactive) | > 10 µM (inactive) | > 10 µM (inactive) | > 10 µM | > 10 µM (inactive) | GI50 (MDA-MB-231): > 10 µM (inactive); GI50 (SK-OV-3): > 10 µM (inactive); GI50 (CAKI-1): > 10 µM (inactive); GI50 (IGROV-1): > 10 µM (inactive); GI50 (M14): > 10 µM (inactive); GI50 (COLO 205): > 10 µM (inactive); GI50 (SK-MEL-28): > 10 µM (inactive); GI50 (UACC-62): > 10 µM (inactive); GI50 (RPMI-8226): > 10 µM (inactive); GI50 (HCC 2998): > 10 µM (inactive); GI50 (DU-145): > 10 µM (inactive); GI50 (PC-3): > 10 µM (inactive); GI50 (SF-295): > 10 µM (inactive); GI50 (MDA-N): > 10 µM (inactive); GI50 (SF-268): > 10 µM (inactive); GI50 (HL-60): > 10 µM (inactive); GI50 (T47D): > 10 µM (inactive); GI50 (KM12): > 10 µM (inactive); GI50 (RXF 393): > 10 µM (inactive)
Cc1ncc([N+](=O)[O-])n1CC(O)Cn1cnc([N+](=O)[O-])n1 (stereo not given) | > 100 µM (inactive) | > 100 µM (inactive) | > 100 µM (inactive) | > 100 µM (inactive) | > 100 µM (inactive) | 55.1 µM (inactive) | > 100 µM (inactive) | > 100 µM (inactive) | > 100 µM (inactive) | > 10 µM (inactive) | > 100 µM (inactive) | > 100 µM (inactive) | > 100 µM (inactive) | > 100 µM (inactive) | > 100 µM (inactive) | > 100 µM (inactive) | > 100 µM (inactive) | > 100 µM (inactive) | > 100 µM | > 100 µM (inactive) | GI50 (Hs-578T): > 100 µM (inactive); GI50 (U-251): > 100 µM (inactive); GI50 (NCI-H226): > 100 µM (inactive); GI50 (ACHN): > 100 µM (inactive); GI50 (A498): 2.84 µM (inactive); GI50 (NCI-H522): > 100 µM (inactive); GI50 (SF-539): > 100 µM (inactive); GI50 (OVCAR-3): > 100 µM (inactive); GI50 (SK-MEL-28): > 100 µM (inactive); GI50 (SK-MEL-2): > 100 µM (inactive); GI50 (NCI-H460): > 100 µM (inactive); GI50 (RPMI-8226): > 100 µM (inactive); GI50 (HCC 2998): > 100 µM (inactive); GI50 (PC-3): > 100 µM (inactive); GI50 (SF-295): > 100 µM (inactive); GI50 (SF-268): > 100 µM (inactive); GI50 (HL-60): 64.1 µM (inactive); GI50 (KM12): > 100 µM (inactive); GI50 (HCT-116): > 100 µM (inactive); GI50 (OVCAR-5): > 100 µM (inactive)
